Measurements as given in US7371841B2, “Methods of modulating cold sensory perception” (Regents of the University of California, priority 2002, dated 2008).
Read-outs that look alike come from different tables or passages of the source.

Columns and labels:
trigeminal neurons [1] = assay: Whole-cell patch-clamp recordings of dissociated trigeminal neurons; type: cell-based, rat; settings: for membrane currents elicited in trigeminal neurons: compared to an equivalent dose of menthol
Experimental: Trigeminal ganglia were removed from newborn S/D rats, placed in ice-cold culture medium (MEM Eagle's with Earle's BSS supplemented with 10% horse serum, vitamins, penicillin/streptomycin and L-glutamine), cleaned of connective tissue/blood vessels and diced into 4-5 pieces. Ganglia were then transferred to 0.125% collagenase P (Boehringer) solution in CMF Hank's, shaken gently at 37° C. for 20 (P0 animals) to 30 min (P4 animals), pelleted, and resuspended in 0.05% STV at 37° C. for 2 min. Culture medium was added to inhibit enzymatic activity and ganglia were triturated gently with a fire-polished Pasteur pipette. Neurons were enriched by density gradient centrifugation as described (see, e.g., Eckert et al., J. Neurosci. Methods 77:183-90, 1997). Cells were resuspended in complete culture medium (MEM Eagle's/Earle's BSS with 10% horse serum, vitamins, penicillin/streptomycin, L-glutamine and 100 ng/ml NGF 7S (Invitrogen) and plated onto glass coverslips coated with PLO (1 mg/ml, Sigma) and laminin (5 μg/ml, Invitrogen). Cultures were maintained at 37° C. in 5% CO2 and examined 1-2 days after plating. Ca^2+ microfluorimetry was carried out as described (Caterina et al., Nature 389:816-24 (1997)). For cell selection prior to patch-clamp analysis, CaCl2 and pluronic acid were omitted from the loading buffer (nominally Ca^2+-free CIB). Cells in the recording chamber were perfused by gravity using the VC-6 valve control system (Warner Inst.).
Trigeminal neurons responding to […] menthol with an increase in intracellular Ca2+ were selected for patch-clamp recordings. HEK293 cells were cultured in DMEM with 10% fetal bovine serum and co-transfected (Lipofectamine 2000, Invitrogen) with 1 μg CMR1 plasmid and 0.1 μg enhanced green fluorescence reporter plasmid to identify transfected cells. Cells were plated onto PLO-coated coverslips the next day and examined two days after transfection. Gigaseals were formed with pipettes (Garner Glass type 7052, ID 1.1, OD 1.5) having a resistance of 3-5 MΩ in standard pipette solution. Whole-cell voltage clamp was performed at a holding potential of −60 mV with a 200 ms voltage ramp from −120 mV to +80 mV at 3.6 Hz. Data were acquired using Pulse-Pulsefit (HEKA GmbH) software. Recordings were filtered at 5 kHz and sampled at 20 kHz. Pipette solution for neuronal experiments contained (in mM) 140 CsCl, 1 EGTA, 0.6 MgCl2, 10 HEPES, pH 7.4 (adjusted with CsOH). Standard Ca^2+-free bath solution for whole-cell recordings contained (in mM) 140 NaCl, 4 KCl, 2 MgCl2, 100 nM TTX (Sigma), 10 TRIS, pH 7.4 (adjusted with HCl) with or without 100 nM dendrotoxin I (Sigma). For ion replacement experiments, pipette solution contained (in mM) 140 KCl, 5 CsCl, 1 EGTA, 0.6 MgCl2, 1 4-aminopyridine, 10 HEPES, pH 7.4 (adjusted with KOH). Bath solution contained (in mM) 140 NaCl, 4 KCl, 2 MgCl2, 100 nM TTX, 100 nM dendrotoxin I, 100 nM apamine (Sigma), 100 nM carybdotoxin (Sigma), 1 μω-conotoxin MVIIC, 1 μM GVIA (Latoxan), 10 TRIS, pH 7.4 (adjusted with HCl). For monovalent cation permeability experiments perfusate contained (in mM) 140 NaCl (or 140 KCl or 140 NMDG), 100 nM TTX, 1 μM nitrendipine (Sigma), 10 HEPES, 10 glucose, pH 7.4 (adjusted with NaOH, KOH or HCl, respectively). For divalent cation permeability experiments perfusate contained (in mM) 125 NMDG, 10 CaCl2, 100 nM TTX, 1 μM nitrendipine, 10 HEPES, 10 glucose, pH 7.4 (adjusted with HCl). […]

CMR1 [2] = target: T1, CMR1 (Rattus norvegicus, UniProt Q8R455, N449H); assay: Whole-cell patch-clamp of CMR1-transfected HEK293 cells; type: cell-based; design: open reading frame of 3312 bp that is predicted to encode a protein of 1104 amino acids; expressed in transfected cells
T1 sequence (Q8R455 whole entry N449H): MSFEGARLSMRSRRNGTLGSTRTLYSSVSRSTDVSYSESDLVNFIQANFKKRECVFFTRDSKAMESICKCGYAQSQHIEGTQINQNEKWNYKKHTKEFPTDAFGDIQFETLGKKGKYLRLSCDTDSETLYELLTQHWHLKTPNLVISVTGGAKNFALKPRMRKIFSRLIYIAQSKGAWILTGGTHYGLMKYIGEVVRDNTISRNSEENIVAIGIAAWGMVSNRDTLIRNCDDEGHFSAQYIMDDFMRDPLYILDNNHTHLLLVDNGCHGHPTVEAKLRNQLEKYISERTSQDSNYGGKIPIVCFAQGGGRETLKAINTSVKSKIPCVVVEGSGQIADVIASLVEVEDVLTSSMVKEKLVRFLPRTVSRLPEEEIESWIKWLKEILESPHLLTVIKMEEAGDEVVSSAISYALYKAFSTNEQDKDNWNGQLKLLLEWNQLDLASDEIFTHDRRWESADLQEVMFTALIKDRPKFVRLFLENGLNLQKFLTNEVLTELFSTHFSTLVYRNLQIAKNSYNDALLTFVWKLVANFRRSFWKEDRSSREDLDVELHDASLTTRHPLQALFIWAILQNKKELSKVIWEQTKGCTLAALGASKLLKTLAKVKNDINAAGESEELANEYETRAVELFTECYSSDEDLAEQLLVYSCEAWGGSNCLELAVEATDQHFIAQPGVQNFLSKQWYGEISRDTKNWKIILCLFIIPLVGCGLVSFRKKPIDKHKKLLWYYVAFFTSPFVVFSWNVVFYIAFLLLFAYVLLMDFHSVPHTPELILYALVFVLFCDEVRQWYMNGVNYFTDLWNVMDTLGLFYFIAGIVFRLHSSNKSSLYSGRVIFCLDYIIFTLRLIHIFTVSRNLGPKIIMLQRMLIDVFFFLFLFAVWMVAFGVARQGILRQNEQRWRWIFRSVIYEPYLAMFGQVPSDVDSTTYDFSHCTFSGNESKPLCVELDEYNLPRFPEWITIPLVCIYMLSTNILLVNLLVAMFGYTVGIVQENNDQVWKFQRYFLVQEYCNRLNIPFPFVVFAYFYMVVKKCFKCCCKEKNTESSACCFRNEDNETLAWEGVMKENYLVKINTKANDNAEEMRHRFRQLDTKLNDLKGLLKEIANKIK
Experimental: Trigeminal neurons responding to […] menthol with an increase in intracellular Ca2+ were selected for patch-clamp recordings. HEK293 cells were cultured in DMEM with 10% fetal bovine serum and co-transfected (Lipofectamine 2000, Invitrogen) with 1 μg CMR1 plasmid and 0.1 μg enhanced green fluorescence reporter plasmid to identify transfected cells. Cells were plated onto PLO-coated coverslips the next day and examined two days after transfection. Gigaseals were formed with pipettes (Garner Glass type 7052, ID 1.1, OD 1.5) having a resistance of 3-5 MΩ in standard pipette solution. Whole-cell voltage clamp was performed at a holding potential of −60 mV with a 200 ms voltage ramp from −120 mV to +80 mV at 3.6 Hz. Data were acquired using Pulse-Pulsefit (HEKA GmbH) software. Recordings were filtered at 5 kHz and sampled at 20 kHz. Pipette solution for neuronal experiments contained (in mM) 140 CsCl, 1 EGTA, 0.6 MgCl2, 10 HEPES, pH 7.4 (adjusted with CsOH). Standard Ca^2+-free bath solution for whole-cell recordings contained (in mM) 140 NaCl, 4 KCl, 2 MgCl2, 100 nM TTX (Sigma), 10 TRIS, pH 7.4 (adjusted with HCl) with or without 100 nM dendrotoxin I (Sigma). For ion replacement experiments, pipette solution contained (in mM) 140 KCl, 5 CsCl, 1 EGTA, 0.6 MgCl2, 1 4-aminopyridine, 10 HEPES, pH 7.4 (adjusted with KOH). Bath solution contained (in mM) 140 NaCl, 4 KCl, 2 MgCl2, 100 nM TTX, 100 nM dendrotoxin I, 100 nM apamine (Sigma), 100 nM carybdotoxin (Sigma), 1 μω-conotoxin MVIIC, 1 μM GVIA (Latoxan), 10 TRIS, pH 7.4 (adjusted with HCl). For monovalent cation permeability experiments perfusate contained (in mM) 140 NaCl (or 140 KCl or 140 NMDG), 100 nM TTX, 1 μM nitrendipine (Sigma), 10 HEPES, 10 glucose, pH 7.4 (adjusted with NaOH, KOH or HCl, respectively). For divalent cation permeability experiments perfusate contained (in mM) 125 NMDG, 10 CaCl2, 100 nM TTX, 1 μM nitrendipine, 10 HEPES, 10 glucose, pH 7.4 (adjusted with HCl). […] Bath solution for on-cell single channel experiments contained (in mM): 150 NaCl, 1 MgCl2, 10 TRIS. Pipette solution for on-cell single channel experiments contained (in mM): 150 NaCl, 1 MgCl2, 0.1 EGTA, 10 TRIS and 5 or 25 μM menthol. Recordings were performed at 22° C. unless noted otherwise. Temperature ramps were generated by cooling or heating the perfusate in a jacketed coil (Harvard Inst.) connected to a thermostat. Temperature in the proximity of the patched cell was measured using a miniature thermocouple (type MT-29/2, Physitemp) and sampled using an ITC-18 A/D board (Instrutech) and Pulse software. Permeability ratios for monovalent cations to Na (PX/PNa) were calculated according to: PX/PNa=exp(ΔErev(Na-X)F/RT), where ΔErev(Na-X) equals the reversal potential change, F the Faraday's constant, R the universal gas constant and T the absolute temperature. For measurements of Ca^2+ permeability PCa/PNa was calculated according to Lewis, C. A. J. Physiol. 286:417-45, 1979, (equation A6).

CMR1 [3] = target: T1, CMR1; assay: Two-electrode voltage-clamp of Xenopus oocytes expressing the cloned cold/menthol receptor; type: cell-based; design: open reading frame of 3312 bp that is predicted to encode a protein of 1104 amino acids; expressed in transfected cells; host or cells: Xenopus laevis oocytes (cRNA injection); settings: for electrophysiological response of receptor-expressing oocytes: menthone, camphor, cyclohexanol applied near limits of solubility (>500 μM); for EC50: room temperature, voltage clamp at -60 mV
Experimental: cRNA transcripts were synthesized and injected into Xenopus laevis oocytes as described (Brake, supra). Two-electrode voltage-clamp recordings were performed 2-7 days post-injection. Dose-response curves for cooling compounds were performed at room temperature (22-24° C.). AG-3-5 (icilin) was provided by Dr. E. Wei, University of California, Berkeley. Temperature ramps were generated by heating (˜35° C.) or cooling (˜4° C.) the perfusate in a Harvard coil and monitoring temperature changes with a thermister placed near the oocyte.

trigeminal neurons [4] = assay: Calcium imaging (Fura-2) of dissociated trigeminal neurons; type: cell-based, rat; settings: capsaicin 1 μM
Experimental: Trigeminal ganglia were removed from newborn S/D rats, placed in ice-cold culture medium (MEM Eagle's with Earle's BSS supplemented with 10% horse serum, vitamins, penicillin/streptomycin and L-glutamine), cleaned of connective tissue/blood vessels and diced into 4-5 pieces. Ganglia were then transferred to 0.125% collagenase P (Boehringer) solution in CMF Hank's, shaken gently at 37° C. for 20 (P0 animals) to 30 min (P4 animals), pelleted, and resuspended in 0.05% STV at 37° C. for 2 min. Culture medium was added to inhibit enzymatic activity and ganglia were triturated gently with a fire-polished Pasteur pipette. Neurons were enriched by density gradient centrifugation as described (see, e.g., Eckert et al., J. Neurosci. Methods 77:183-90, 1997). […]

[5] = normalized to 500 μM menthol, read-out: EC50 of evoked membrane currents

CC1CCC(C(C)C)C(O)C1 (stereo not shown) [menthol]
thermal threshold of cold-evoked currents in the presence of the compound (trigeminal neurons [1]; 10 μM menthol, threshold without menthol 27.1±0.5° C., n=4): 29.6±0.3 °C | EC50 (trigeminal neurons [1]; Rattus norvegicus, Neuron, room temperature, Vhold=-60 mV, currents normalized to 1 mM menthol, read-out: half-maximal effective concentration (EC50) of evoked inward currents): 80 ± 2.4 µM | Hill coefficient (η) (trigeminal neurons [1]; fit of concentration-response data to the Hill equation): 2.2 | desensitization: decrease in peak current between first and second application (CMR1 [2]; 2.5 mM extracellular Ca2+, n=3): 53.9±1.7% | desensitization: decrease in peak current between first and second application (CMR1 [2]; nominally calcium-free bath solution, n=3): 9.1±7% | effect on cold-evoked currents (CMR1 [2]; sub-activating dose 10 μM menthol): markedly potentiated | electrophysiological response of receptor-expressing oocytes (CMR1 [3]): Robust responses | EC50 (CMR1 [3]; [5]): 66.7 ± 3.3 µM | saturation temperature of cold-activated currents in the presence of the compound (CMR1 [3]; sub-activating menthol (20 mM printed), without menthol 8.2±0.3° C., n=7): 15.6±0.4 °C | threshold temperature of cold-activated currents in the presence of the compound (CMR1 [3]; sub-activating menthol (20 mM printed), without menthol 25.8±0.4° C., n=7): 29.7±0.3 °C

CC(C)[C@@H]1CC[C@@H](C)CC1=O [menthone]
membrane currents elicited in trigeminal neurons (trigeminal neurons [1]): very small currents

OC1CCCCC1 [cyclohexanol]
membrane currents elicited in trigeminal neurons (trigeminal neurons [1]): no effect

CC12CCC(CC1)C(C)(C)O2 [Eucalyptol]
EC50 (CMR1 [3]; read-out: potency (EC50) of evoked membrane currents): 3400 ± 400 µM

COc1cc(CNC(=O)CCCC/C=C/C(C)C)ccc1O [capsaicin]
fraction of menthol/cold-sensitive neurons also activated (trigeminal neurons [4]): 54.5±6.1% | electrophysiological response of receptor-expressing oocytes (CMR1 [3]): did not elicit responses

O=C1NC(c2cccc([N+](=O)[O-])c2)=CCN1c1ccccc1O [icilin]
desensitization of evoked currents relative to peak currents (CMR1 [2]; 20 s after application, n=3): 78.8±17% | activity in the absence of extracellular calcium (CMR1 [2]; no extracellular calcium): essentially inactive | efficacy compared to menthol (CMR1 [3]): ~2.5 fold | electrophysiological response of receptor-expressing oocytes (CMR1 [3]): Robust responses | potency relative to menthol (CMR1 [3]; ratio of EC50 values): ~200 fold | EC50 (CMR1 [3]; [5]): 0.36 ± 0.03 µM

CC12CCC(CC1=O)C2(C)C (stereo not shown) [camphor]
electrophysiological response of receptor-expressing oocytes (CMR1 [3]): little or no effect
